Here are results for two compounds from article PMC12186843, “Targeting GABAergic Hypofunction Associated with Schizophrenia: Identification of α1β2γ2GABA‑A Receptor Ligands with Neuroprotective and Antipsychotic Properties” (ACS Chemical Neuroscience, 2025).

Where only a bound is given, the exact number is not on record here.

As a reminder, the share remaining is what is left of the initial amount, in per cent. As a reminder, the EC50 is the concentration needed to bring the measured effect to its halfway point. What is called Papp A→B is the apparent permeability from the apical to the basolateral side of a cell layer. Read a low Papp A→B as slow passage. The term Papp B→A denotes how fast a substance crosses the layer from the basolateral side. The term efflux ratio denotes a quotient of directional permeabilities that is used to spot active efflux. What is called Ki is the equilibrium dissociation constant of an inhibitor or competing ligand from its target.

For series [1], the system named is SH-SY5Y cells. In words: ROS generation after hydrogen peroxide (CellROX). In kind it is cell-based, human. Particulars: 50 μM pretreatment 1 h, then H2O2 300 μM 1 h. As to the method:
(§1) 7 (A). Effect of 6-Hydroxydopamine (6-OHDA) on intracellular calcium concentration [Ca^2+] determined by Fluo-4 AM. After pretreatment with tested compounds (50 μM) or vehicle (0.5% DMSO, v/v) for 1 h, the cells were incubated with 6-Hydroxydopamine (6-OHDA, 250 μM) for 1 h. 6-OHDA control: cells treated with 250 μM of 6-OHDA. […]. DMSO control: cells treated with 0.5% DMSO only. Data are presented as the mean ± SD from 2–3 independent experiments. Experiments were carried on with ImageXpress Micro XLS (Molecular Devices). (B) The level of ROS generation was determined by Cell ROX dye. After pretreatment with tested compounds (50 μM) or vehicle (0.5% DMSO, v/v) for 1 h, the cells were incubated with hydrogen peroxide (H2O2, 300 μM) for 1 h. H2O2 control: cells treated with H2O2 (300 μM). DMSO control: cells treated with 0.5% DMSO only. Data are presented as the mean ± SD from 2–3 independent experiments. Experiments were carried on with the ImageXpress Micro XLS (Molecular Devices).
The SH-SY5Y human neuroblastoma cell line was maintained according to established protocols. […]
Cellular reactive oxygen species (ROS) levels were determined using the CellROX Deep Red Reagent (Thermo Fisher). […] The results were expressed as a percentage relative to the control (DMSO). Fluorescence intensity was measured using the ImageXpress Micro XLS system (Molecular Devices).

Series [2] in a line: Metabolic stability in mouse liver microsomes. Type of series: in vitro ADME. (Liver microsomes are vesicles of endoplasmic reticulum, rich in cytochrome P450 enzymes.)
Series [3] concerns SH-SY5Y cells. The experiment in a line: ToxiLight assay (cell membrane damage). In kind it is cell-based. Particulars: Table S1, 24 h. As to the method:
Damage to the cell membrane was assessed using the bioluminescent ToxiLight bioassay (Lonza), a profound method for detecting cell toxicity. Following 24 h of treatment, 5 μL of the supernatant above the sediment was transferred to a 384-well plate (PerkinElmer). Subsequently, 20 μL of Adenylate Kinase Detection Reagent (AKDR) was added to each well. Luminescence was recorded after a 10 min incubation period using a POLARstar Omega plate reader (BMG Labtech). Results are presented as a percentage relative to the control sample (cells lysed), reflecting the proportion of dead cells compared to the control.
(§2) 1. Cytotoxicity studies for selected compounds
Table S1. The viability of the cells SH-SY5Y after treatment with tested compounds for 24 the results are expressed as a percentage of dead cells with luminescence ToxiLight Assay. The results are expressed as a per cent of control with whole lysis cells. N.C. not countable […]
Table S2. The viability of the cells SH-SY5Y after treatment with tested compounds for 24 h the results are expressed as a percentage of live cells with fluorescence PrestoBlue Assay. The results are expressed as a per cent of vehicle (DMSO). […]

Series [4] has as its system SH-SY5Y cells. In words: Intracellular calcium concentration after 6-OHDA (Fluo-4). In kind it is cell-based, human. The following applies: 50 μM pretreatment 1 h, then 6-OHDA 250 μM 1 h. How it is done:
as §1
The SH-SY5Y human neuroblastoma cell line was maintained according to established protocols. The cells, obtained from the American Type Culture Collection (ATCC), were cultured in Dulbecco’s Modified Eagle’s Medium (DMEM, high glucose; Thermo Fisher), supplemented with 10% fetal bovine serum (Thermo Fisher), 100 IU/ml penicillin (Merck), and 100 μg/mL streptomycin (Merck). They were grown in 75 cm^2 flasks (Nunc) at 37 °C in a humidified atmosphere containing 5% CO2. For compound evaluation, SH-SY5Y cells were plated in 96-well plates (Falcon) at a density of 2 × 10^4 cells per well. The cells were allowed to adhere and grow for 24 h in an incubator set to 37 °C and 5% CO2 before starting the experiments. Stock solutions of both test and reference compounds were prepared at a concentration of 10^–2 M. A minimum of 1 mg of each compound was dissolved in dimethyl sulfoxide (DMSO). Serial dilutions were made in DMSO, then further diluted in PBS, mixed, and added to the cell culture medium.
The intracellular Ca^2+ levels were assessed using a homogeneous cell-based assay with the Fluo-4 Direct Calcium Assay Kit (Thermo Fisher). Following incubation with the tested compounds, the supernatant was discarded, and the cells were incubated with 1 μM Fluo-4/AM in FluoroBrite DMEM (Thermo Fisher) for 1 h at 37 °C. The results were expressed as a percentage relative to the control (DMSO). Fluorescence intensity was recorded using the ImageXpress Micro XLS system (Molecular Devices).

For series [5], the system named is SH-SY5Y cells. In words: PrestoBlue cell viability assay. Particulars: Table S2, 24 h. In kind it is cell-based. As to the method: Cell viability was determined using the Presto Blue reagent (ThermoFisher) following the manufacturer’s instructions.
as §2
Table S1. The viability of the cells SH-SY5Y after treatment with tested compounds for 24 the results are expressed as a percentage of dead cells with luminescence ToxiLight Assay. The results are expressed as a per cent of control with whole […]
percentage of live cells with fluorescence PrestoBlue Assay. The results are expressed as a per cent of vehicle (DMSO).

In series [6] the target is T1, α1β2γ2 GABA-A receptor (Homo sapiens, UniProt P14867+P18507).
T1 construct: expressed in transfected cells
T1 sequence (P14867 28-456): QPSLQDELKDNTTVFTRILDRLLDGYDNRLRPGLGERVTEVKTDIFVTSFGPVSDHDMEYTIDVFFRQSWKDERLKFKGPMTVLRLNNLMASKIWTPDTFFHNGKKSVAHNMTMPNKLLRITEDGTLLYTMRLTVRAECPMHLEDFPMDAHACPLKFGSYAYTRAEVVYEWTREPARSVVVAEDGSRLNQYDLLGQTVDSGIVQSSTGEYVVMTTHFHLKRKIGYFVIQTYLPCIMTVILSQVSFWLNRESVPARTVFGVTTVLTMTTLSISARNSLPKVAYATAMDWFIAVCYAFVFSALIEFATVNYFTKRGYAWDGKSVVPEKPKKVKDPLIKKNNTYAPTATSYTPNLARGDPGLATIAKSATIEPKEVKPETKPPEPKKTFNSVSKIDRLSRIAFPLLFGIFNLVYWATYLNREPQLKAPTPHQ
T1 sequence (P47870 25-512 partner limits assumed): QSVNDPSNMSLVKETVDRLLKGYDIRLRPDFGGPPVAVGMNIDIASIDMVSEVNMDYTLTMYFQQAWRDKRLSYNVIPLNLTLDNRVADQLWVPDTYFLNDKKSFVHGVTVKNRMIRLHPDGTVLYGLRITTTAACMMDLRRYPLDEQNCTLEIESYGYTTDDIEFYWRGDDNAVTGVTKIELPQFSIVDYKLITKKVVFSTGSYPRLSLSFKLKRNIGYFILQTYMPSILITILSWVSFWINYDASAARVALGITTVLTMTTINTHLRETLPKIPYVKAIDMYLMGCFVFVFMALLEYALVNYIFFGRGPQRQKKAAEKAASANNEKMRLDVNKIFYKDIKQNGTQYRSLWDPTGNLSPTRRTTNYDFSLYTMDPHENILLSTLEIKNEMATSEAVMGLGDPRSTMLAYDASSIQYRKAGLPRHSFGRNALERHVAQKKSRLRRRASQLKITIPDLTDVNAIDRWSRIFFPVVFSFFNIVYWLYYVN
T1 sequence (P18507 40-475): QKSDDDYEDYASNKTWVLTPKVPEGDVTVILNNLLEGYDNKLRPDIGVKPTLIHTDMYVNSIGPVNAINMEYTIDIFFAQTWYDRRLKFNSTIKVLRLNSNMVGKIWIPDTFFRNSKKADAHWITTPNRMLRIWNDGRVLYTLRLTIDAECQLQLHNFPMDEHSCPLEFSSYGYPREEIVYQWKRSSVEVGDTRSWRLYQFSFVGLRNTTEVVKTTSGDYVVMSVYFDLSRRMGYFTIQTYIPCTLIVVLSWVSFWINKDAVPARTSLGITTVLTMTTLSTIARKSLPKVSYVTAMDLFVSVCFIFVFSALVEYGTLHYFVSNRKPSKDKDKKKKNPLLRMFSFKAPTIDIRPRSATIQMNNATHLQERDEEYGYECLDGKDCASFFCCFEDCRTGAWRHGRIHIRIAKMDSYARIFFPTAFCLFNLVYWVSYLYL
The experiment in a line: Electrophysiological studies (QPatch16X automated patch-clamp), PAM efficacy. Type of series: cell-based. (In general: The patch-clamp technique gives a direct electrical read-out from membranes.)

The subject of series [7] is P-glycoprotein (P-gp, MDR1). The experiment in a line: A–B and B–A permeability assay in MDR1-MDCKII cell line. Particulars: dog. How it is done: (§3) The A–B and B–A permeability assay using the MDR1-MDCKII cell line was conducted at Eurofins Discovery according to a well-established protocol.
The subject of series [8] is MDR1-MDCKII cell line. The series is described as above. The following applies: MDCK-MDR1 permeability assay. How it is done:
as §3

Series [9] is described as follows: Metabolic stability in rat liver microsomes. Type of series: in vitro ADME.
Series [10] can be described thus: Metabolic stability in human liver microsomes. Type of series: in vitro ADME. As to the method: In Eppendorf tubes, potassium phosphate buffer (pH 7.4), a working solution of the test compound, and human liver microsomes (final concentration: 0.4 mg/mL, Sigma-Aldrich) were combined. The mixture was incubated at 37 °C with shaking for 15 min in a thermoblock. Following this, an NADPH regeneration system (Sigma-Aldrich) was added to the mixture, which was subsequently incubated with shaking at 37 °C for various time intervals (5, 15, 30, 60, 90, 120, 150, 180, 210, and 240 min). A control experiment was run in parallel, replacing the regeneration fraction with phosphate buffer. At the designated incubation times, an internal standard (levallorphan, Sigma-Aldrich) was added to each sample. To terminate the reaction, 70% perchloric acid (Sigma-Aldrich) was added, and the samples were centrifuged at 6000 rpm for 10 min at 4 °C. The resulting supernatants were collected and subjected to LC-MS/MS analysis. Each sample was analyzed in duplicate.

Series [11] addresses GABA-A receptor. In words: Radioligand binding at the GABA-A receptor. Also on record: species or system rat. Particulars: mean of two-three independent experiments; read-out: GABA-A Ki ± SEM. How it is done:
The study was conducted in accordance with previously established protocols, and performed in duplicate. Rat brains were homogenized and prepared following the described methodologies. The assay was carried out directly on 96-well microplates containing 50 mM Tris-HCl buffer (pH 7.4) in a total volume of 300 μL. […] To determine nonspecific binding, 100 μM GABA was included in the mixture. The 96-well microplates were incubated at 0 °C for 10 min, followed by rapid filtration through FilterMate B glass fiber filters (PerkinElmer, USA) using a Harvester-96 MACH III FM (Tomtec, USA). The filters were gently dried in a microwave and sealed in plastic bags (PerkinElmer, USA). Each filter was then immersed in 10 mL of Ultima Gold MV liquid scintillation cocktail (PerkinElmer, USA). […] Ki values were calculated using the Cheng and Prusoff equation, and statistical analyses were conducted using GraphPad Prism (version 4.0, San Diego, CA, USA)

The conditions of series [12]: literature value; cited from earlier work.
Series [13] can be described thus: PAMPA permeability assay. Type of series: in vitro ADME. Particulars: PBS pH 7.4, 100 μM, 5 h, zolpidem tested as tartrate. As to the method: PAMPA. The precoated PAMPA Plate System Gentest, obtained from Corning (Tewksbury, MA, USA), was used for the permeability study. The system includes a 96-well receiver filter plate precoated with structured phospholipid layers and a matching donor microplate. Stock solutions of the test compounds and reference drugs were prepared in PBS buffer (pH 7.4) at a final concentration of 100 μM. Each compound solution (200 μL) was added to the donor wells and incubated at room temperature for 5 h. The quantity of molecules that penetrated from the donor wells to the acceptor wells through the phospholipid membrane was determined using UPLC-MS spectrometry (Waters ACQUITY TQD system with the TQ Detector, Waters, Milford, USA) with an internal standard. Permeability coefficients (Pe, cm/s) were calculated according to the formula provided by the manufacturer.
In general terms: PAMPA measures passive passage across an artificial lipid membrane.

With `Cc1ccc2nc(-c3ccc(F)cc3)c(CC(=O)N3CC(C)NC(C)C3)n2c1` (stereo not shown) [Compound 6, 1-(3,5-Dimethylpiperazin-1-yl)-2-[2-(4-fluorophenyl)-6-methylimidazo[1,2-a]pyridin-3-yl]ethan-1-one], the “Decrease of ROS levels” value in [1] turned out to be 32%. In addition, in series [2], the “t0,5 MLMs” value is given as 58 min. Besides, the fraction remaining at 0.25 h in series [2] (mouse, liver microsomes, pH 7.4, after 15 min of biotransformation, read-out: % remaining of the parent compound MLMs) amounted to 68%; in series [9] (rat, liver microsomes, pH 7.4, after 15 min of biotransformation, read-out: % remaining of the parent compound RLMs), 70%; in series [10] (human, liver microsomes, pH 7.4, after 15 min of biotransformation, read-out: % remaining of the parent compound HLMs), 74%. The microsomal CLint is less than 40 µL/min/mg in [2] (mouse, liver microsomes, pH 7.4, read-out: Clint MLMs); less than 40 µL/min/mg in series [9] (rat, liver microsomes, pH 7.4, read-out: Clint RLMs); less than 40 µL/min/mg in series [10] (human, liver microsomes, pH 7.4, read-out: Clint HLMs). In addition, the “X [%], percentage of dead cells, ToxiLight Assay (per cent of control with whole lysis cells)” value in [3] (1E-04 M) came to 74%; in series [3] (1E-05 M), 93%; in series [3] (1E-06 M), 109%; in series [3] (1E-07 M) it was 97%; in [3] (1E-08 M) it was 108%; in series [3] (1E-09 M) it was 101%. Besides, the entries for the “X [%], percentage of dead cells, ToxiLight Assay (per cent of control with whole lysis cells)” value in series [3] (3E-05 M) and in series [3] (3E-06 M) were 87% and 105%, respectively. For the same compound, the “Reduction of intracellular calcium levels” value in series [4] was 28%. Besides, the “X [%], percentage of live cells, PrestoBlue Assay (per cent of vehicle DMSO)” value is 17% in series [5] (1E-05 M); 16% in series [5] (1E-06 M); 17% in [5] (1E-07 M); 18% in [5] (1E-08 M); 17% in series [5] (1E-09 M); 17% in [5] (3E-05 M). The “X [%], percentage of live cells, PrestoBlue Assay (per cent of vehicle DMSO)” value in series [5] (3E-06 M) was determined as 16%. In series [6], this compound came in with an EC50 of 872 ± 77 nM. In series [7] (MDCK-MDR1, pH 7.4), this compound showed a Papp A→B at 10 μM of 14.5 ×10⁻⁶ cm/s. The compound also registered a basolateral-to-apical permeability (Papp B→A) at 10 μM in series [7] (MDCK-MDR1, pH 7.4) of 24.6 ×10⁻⁶ cm/s. Moreover, the efflux ratio at 10 μM in [7] (MDCK-MDR1, pH 7.4, Efflux ratio (Paap B–A/A–B), pH 7.4/7.4, 6 and 17 at 10 μM) was 1.68. For the same compound, in series [8], the “Substrate for P-glycoprotein (P-gp) efflux” value was “possible substrate”. In series [9], the “t0,5 RLMs” value is 44 min. Moreover, the “t0,5 HLMs” value in [10] is given as more than 60 min.
Consider `Cc1ccc(-c2nc3ccc(C)cn3c2CC(=O)N(C)C)cc1` [zolpidem, reference compound], for which, in series [11], the Ki was 37.8 ± 2.7 nM. Further, the “plasma half-life (t0,5) in humans” value in [12] is 2–3 h and ≈ 2 h. Further, the “X [%], percentage of dead cells, ToxiLight Assay (per cent of control with whole lysis cells)” value in [3] (1E-04 M) was 71%; in series [3] (1E-05 M), 92%; in [3] (1E-06 M), 98%; in [3] (1E-07 M), 100%; in series [3] (1E-08 M), 101%; in series [3] (1E-09 M) it was 100%. Besides, the “X [%], percentage of dead cells, ToxiLight Assay (per cent of control with whole lysis cells)” value in [3] (3E-05 M) turned out to be 90%; in series [3] (3E-06 M) it was 96%. In addition, the “Reduction of intracellular calcium levels” value in series [4] came to 47%. Also, in series [13], the “Permeability Pe ± SD” value is on record as 21.6 ± 1.26 ·10^–6 cm/s.
